Data taken from patent US12139508B2, “Steroid derivative regulators, method for preparing the same, and uses thereof” (JIANGSU HANSOH PHARMACEUTICAL GROUP CO., LTD., priority 2018, dated 2024).
Like-named read-outs stand apart in the source and are kept apart here.

Key:
[1] = Pharmacokinetic assay in Balb/c mice (plasma and brain tissue); type: in vivo; conditions: mouse, po, 5 mg/kg p.o., male Balb/c mice; for AUC(0-t): read-out: Area under curve AUC0-t; for AUC(0-inf): read-out: Area under curve AUC0-∞; for half-life: read-out: Half-life t1/2 (converted); for MRT: read-out: Mean residence time MRT; for Tmax: read-out: Peak time tmax; for Cmax: read-out: Plasma concentration Cmax
Protocol: Balb/c mice were used as test animals. The pharmacokinetic behavior in mice (plasma and brain tissue) of the compounds of Examples 2, 3, 5, 6, 9, 13, 59, 60, 61, 63, 71-74, 81, 103, 130, 134, 135, 137, 138, 140, 141, 143, 145 and 146 orally administered at a dose of 5 mg/kg was studied.
Each group had 24 male Balb/c mice. After an overnight fast, Balb/c mice were administered p.o. with the test compound at an administration dose of 5 mg/kg and an administration volume of 10 mL/kg.
0.2 ml of blood was taken from the heart before administration and at 0, 0.5, 1, 2, 4, 6, 8 and 24 hours after administration. The samples were stored in EDTA-K2 tubes, and centrifuged for 6 minutes at 4° C., 6000 rpm to separate the plasma. The plasma samples were stored at −80° C. The mice were sacrificed with CO2, and the whole brain tissue was taken out, weighed, placed in a 2 mL centrifuge tube and stored at −80° C.
1) 160 μL of acetonitrile was added to 40 μL of the plasma sample for precipitation, and then the mixture was centrifuged for 5-20 minutes at 3500×g.
2) 90 μL of acetonitrile containing the internal standard (100 ng/mL) was added to 30 μL of the plasma and brain homogenate samples for precipitation, and then the mixture was centrifuged for 8 minutes at 13000 rpm.
3) 70 μL of the treated supernatant was taken and added to 70 μL of water, and mixed by vortex for 10 minutes. 20 μL of the mixture was taken to analyze the concentration of the test compound by LC/MS/MS. LC/MS/MS analysis instrument: AB Sciex API 4000 Qtrap.
• Liquid chromatography condition: Shimadzu LC-20AD pump. • Chromatographic column: Agilent ZORBAX™ XDB-C18 (50×2.1 mm, 3.5 μm) (note: Aglient ZORBAX™ is a kind of column used in the reverse HPLC); • Mobile phase: Eluent A was 0.10% formic acid in water, and Eluent B was acetonitrile. • Flow rate: 0.4 mL/min • Elution time: 0-4.0 minutes, the eluent is as follows:
The main parameters of pharmacokinetics were calculated by WinNonlin 6.1.

forced-swimming mice = assay: In vivo pharmacodynamic test in the forced swimming model in mice; conditions: ICR mice; for Mean (immobility, %): dose 10 mpk p.o., 100*floating time/240 s; for Immobility time during the latter four minutes compared with that of the model group: forced swimming
Protocol: The antidepressant effect of the compound was evaluated by the forced swimming model in mice.
Male ICR mice (25-35 g) were adapted in the test environment for 3 days before the forced swimming test.
According to the test design, the mice were randomly grouped on the day before the test according to body weight, with 12 mice in each group. Before the test, the compounds of each example were administered intragastrically according to the Tmax thereof in the brain in mice pharmacokinetic test as follows: • 1) Model group (0.5% CMC-Na-1% Tween 80 solution, p.o., 10 mL/kg); • 2) Compounds of Example 2, Example 3, Example 5, Example 6, Example 9, Examples 59-63, Examples 71-73, Example 103, Example 135, Example 137, Example 145 and Example 146 (10 mg/kg, p.o., 10 mL/kg); Example 13 and Example 74 (5 mg/kg, p.o., 5 mL/kg).
When being administered, the compounds of each example were suspended in 0.5% CMC-Na+1% Tween 80 solution to the desired concentration.
0.5-1 hour after administration, ICR mice were placed in a forced swimming device (transparent glass drum (water depth 18 cm, water temperature 25-26° C.), one mouse per tank) and forced to swim for 6 minutes. The forced swimming device recorded the floating time of the ICR mice during the entire 6 minutes, and the data of the latter four minutes were used for data analysis. The mice were taken out immediately after the swimming test, wiped dry and put back in their original cages.
Note: The criterion for determining the immobility time is that the mouse stops struggling in water and floats, and there are only slight limb movements to keep the head floating on the water.
3.4 Data Analysis Floating time percentage=100*floating time/240 s.

GABA-A receptor = assay: 35S-TBPS binding assay (GABAA receptor binding ability test); set-up: species or system Sprague-Dawley rat; conditions: rat cerebral cortex cell membrane, 5 μM GABA, 2 nM 35S-TBPS; read-out: 35S-TBPS bindng test: IC50 on inhibiting the TBPS binding activity
Outline: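 Rat (male Sprague-Dawley) cortical membranes in PBS were preincubated 5 min at 25° C with compound (from 1 μM, 3-fold, 8 points, 1% DMSO), then 5 μM GABA 5 min, then 2 nM ^35S-TBPS for 20 h at 4° C. Filter-bound counts gave % inhibition against DMSO and 10 μM P026-2 controls; IC50 by 4-parameter fit.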

Compound | AUC(0-t) ([1]; brain tissue) | AUC(0-inf) ([1]; brain tissue) | half-life ([1]; brain tissue) | MRT ([1]; brain tissue) | Tmax ([1]; brain tissue) | Cmax ([1]; brain tissue) | AUC(0-t) ([1]; plasma) | AUC(0-inf) ([1]; plasma) | half-life ([1]; plasma) | MRT ([1]; plasma) | Tmax ([1]; plasma) | Cmax ([1]; plasma) | Mean (immobility, %) (forced-swimming mice) | Immobility time during the latter four minutes compared with that of the model group (forced-swimming mice) | IC50 (GABA-A receptor)
C[C@@]1(O)CC[C@H]2[C@H](CC[C@@H]3[C@@H]2CC[C@@]2(C)[C@H]3[C@H](C3CC3)C[C@@H]2C(=O)Cn2ccc(C#N)n2)C1 [Example 72, 1-(2-((3R,5R,8R,9R,10S,13S,14S,15S,17S)-15-Cyclopropyl-3-hydroxy-3,13-dimethylhexadecahydro-1H-cyclopenta[a]phenanthren-17-yl)-2-oxoethyl)-1H-pyrazole-3-carbonitrile] | 2050 ng·h/mL | 2240 ng·h/mL | 127 min | 3.17 h | 30 min | 724 ng/mL | 2970 ng·h/mL | 2970 ng·h/mL | 167 min | 3.71 h | 30 min | 1150 ng/mL | 35.74% | significantly different | 
C[C@@]1(O)CC[C@H]2[C@H](CC[C@@H]3[C@@H]2CC[C@@]2(C)[C@H]3[C@H](C3CC3)C[C@@H]2C(=O)Cn2nccn2)C1 [Example 73, 1-((3R,5R,8R,9R,10S,13S,14S,15S,17S)-15-Cyclopropyl-3-hydroxy-3,13-dimethylhexadecahydro-1H-cyclopenta[a]phenanthren-17-yl)-2-(2H-1,2,3-triazol-2-yl)ethan-1-one] | 1100 ng·h/mL | 1120 ng·h/mL | 78.6 min | 1.91 h | 30 min | 636 ng/mL | 2430 ng·h/mL | 2480 ng·h/mL | 84 min | 2.06 h | 30 min | 1300 ng/mL | 29.57% | significantly different | 
CC[C@@H]1C[C@H](C(=O)Cn2ccc(C(F)(F)F)n2)[C@@]2(C)CC[C@H]3[C@@H](CC[C@@H]4C[C@](C)(O)CC[C@@H]43)[C@H]12 [Example 138, 1-((3R,5R,8R,9R,10S,13S,14S,15R,17S)-15-Ethyl-3-hydroxy-3,13-dimethylhexadecahydro-1H-cyclopenta[a]phenanthren-17-yl)-2-(3-(trifluoromethyl)-1H-pyrazol-1-yl)ethan-1-one] | 773 ng·h/mL | 935 ng·h/mL | 88.2 min | 2.38 h | 30 min | 314 ng/mL | 662 ng·h/mL | 730 ng·h/mL | 99.6 min | 2.83 h | 30 min | 432 ng/mL |  |  | 25.2 nM
CC[C@@H]1C[C@H](C(=O)Cn2ccnn2)[C@@]2(C)CC[C@H]3[C@@H](CC[C@@H]4C[C@](C)(O)CC[C@@H]43)[C@H]12 [Example 140, 1-((3R,5R,8R,9R,10S,13S,14S,15R,17S)-15-Ethyl-3-hydroxy-3,13-dimethylhexadecahydro-1H-cyclopenta[a]phenanthren-17-yl)-2-(1H-1,2,3-triazol-1-yl)ethan-1-one] | 4330 ng·h/mL | 4540 ng·h/mL | 72.6 min | 2.1 h | 30 min | 1740 ng/mL | 5980 ng·h/mL | 6110 ng·h/mL | 71.4 min | 2.22 h | 30 min | 2480 ng/mL |  |  | 33.1 nM
CC[C@@H]1C[C@H](C(=O)Cn2nccn2)[C@@]2(C)CC[C@H]3[C@@H](CC[C@@H]4C[C@](C)(O)CC[C@@H]43)[C@H]12 [Example 141, 1-((3R,5R,8R,9R,10S,13S,14S,15R,17S)-15-Ethyl-3-hydroxy-3,13-dimethylhexadecahydro-1H-cyclopenta[a]phenanthren-17-yl)-2-(2H-1,2,3-triazol-2-yl)ethan-1-one] | 2150 ng·h/mL | 2250 ng·h/mL | 101 min | 2.68 h | 30 min | 1050 ng/mL | 3550 ng·h/mL | 3630 ng·h/mL | 81 min | 2.55 h | 30 min | 1630 ng/mL |  |  | 23.9 nM
C[C@@]1(O)CC[C@H]2[C@H](CC[C@@H]3[C@@H]2CC[C@@]2(C)[C@H]3[C@H](C3CC3)C[C@@H]2C(=O)Cn2nc(C#N)cc2C#N)C1 [Example 143, 1-(2-((3R,5R,8R,9R,10S,13S,14S,15S,17S)-15-Cyclopropyl-3-hydroxy-3,13-dimethylhexadecahydro-1H-cyclopenta[a]phenanthren-17-yl)-2-oxoethyl)-1H-pyrazole-3,5-dicarbonitrile] | 8820 ng·h/mL | 9220 ng·h/mL | 237 min | 7.81 h | 120 min | 812 ng/mL | 6290 ng·h/mL | 6490 ng·h/mL | 102 min | 3.08 h | 30 min | 1650 ng/mL |  |  | 28.5 nM
